What was measured:
S. mutans = S. mutans culture and proliferation assay; format: cell-based, Streptococcus mutans; conditions: 5 h
Protocol: (§1) S. mutans CECT 479 (obtained from The Spanish Type Culture Collection (CECT), University of Valencia) was grown from frozen stocks in BHI broth (Scharlab), at 37° C. under aerobic conditions in an orbital shaker (180 rpm). After overnight incubation, 1 mL of bacterial suspensions were incubated with different concentrations of CHX (0.01, 0.005, 0.003, 0.001, 0.0001%) and HCX (0.003, 0.002, 0.001, 0.0002, 0.00002%) for 5 hours at 37° C. under aerobic conditions in an orbital shaker (180 rpm). Bacterial suspension without treatment served as negative control (C−). The optical density (OD) was measured at 600 nm at 0 h and 5 h to determine bacterial proliferation (PowerWave Ht). The bacterial growth rate (μ) was calculated during the exponential growth phase following the equation ln ODt−ln OD0=μ×(t−t0) (n=3). The live/Dead ratio of bacteria was determined using the LIVE/DEAD BacLight bacterial viability kit (Invitrogen), following the manufacturer's instructions. The assays were carried out in triplicate, with two replicates at each condition (n=3).
The bacteria S. mutans was cultured and treated with different commercial periodontal gels and HA formulated with 0.1%, 0.05%, and 0.01% HCX and aMG for 24 h. The gels were tested at a concentration of 5% (v/v), and the experiment was run like in experiment 8 of section 8.1.

bacterial plaque biofilm = test: In vitro bacterial plaque biofilm formation from pooled human saliva; format: cell-based; conditions: 0.05% HCX solution, slides immersed 2 min on days 2 and 3; equal to 0.2% chlorhexidine
Protocol: This is an in vitro study using pooled human saliva as a test substrate to compare the ability of 9-hydroxycalabaxanthone (HCX) versus chlorhexidine (CHX) and control to prevent or reduce plaque biofilm buildup.
Human saliva from different donors was collected and pooled. 15 ml of the pooled saliva supplemented with 0.1% sucrose was pipetted into sterile 40 ml containers and then a glass microscope slide was submerged below 2 cm of saliva in each container and incubated at 37° C. for bacterial biofilm formation. Twice a day the slide was immersed in TSB culture medium. On days 2 and 3, the biofilm was treated with different groups: (1) a solution containing 0.05% 9-hydroxycalabaxanthone (HCX) (n=6), (2) a solution containing 0.2% chlorhexidine (CHX) (n=6), and a solution containing water (C−) (n=6), by immersing the slides for 2 min in the test of the assigned product. […] The removed biofilms were subjected to sonication using three 15 s pulses with a power of 7 W. The homogenized bacterial suspension was used to determine the bacterial viability both by quantification of colony-forming units (CFU) per mL and by LIVE/DEAD assay.
For the Bacterial viability assay, an aliquot (0.1 mL) of the homogenized bacterial suspension was serially diluted and plated on TSB agar. The plates were incubated in 5% CO2 at 37° C. for 48 h, and then the number of CFU/mL was determined. […]

S. epidermidis = S. epidermidis culture and proliferation assay; format: cell-based, Staphylococcus epidermidis
Protocol: S. epidermidis 4814 (CECT, Valencia, Spain) were grown from frozen stocks in Luria-Bertani (LB) broth (Scharlab, Sentmenat), at 37° C. under aerobic conditions in an orbital shaker (180 rpm). After an overnight incubation, 1 mL of bacterial suspensions were incubated with different concentrations of HCX (0.003, 0.002, 0.001, 0.0002, 0.00002%) for 24 hours at 37° C. under aerobic conditions in an orbital shaker (180 rpm). Bacterial suspension without treatment served as negative control, and CHX at 0.001% served as positive control for bacterial growth inhibition. The optical density (OD) was measured at 600 nm at 0 h, 10 h and 24 h to determine bacterial proliferation (PowerWave Ht, Biotek instruments, Winooski, VT, USA). Bacterial growth rate (μ) was calculated during the exponential growth phase following the equation ln ODt−ln OD0=μ×(t−t0). Live/Dead ratio of bacteria was determined using the LIVE/DEAD BacLight bacterial viability kit (Invitrogen, Thermo Fisher Scientific, Waltham, MA, USA), following manufacturer's instructions. The assays were carried out in triplicate, with two replicates at each condition (n=6). […]

S. pyogenes = S. pyogenes culture and proliferation assay; format: cell-based, Streptococcus pyogenes; conditions: 0.0002% HCX, 24 h
Protocol: as §1, with “S. pyogenes” for “S. mutans CECT 479 (obtained from The Spanish Type Culture Collection (CECT), University of Valencia)”, “in Tryptic Soy Broth (TSB)” for “in BHI broth”, “for 24” for “for 5”, “and 24” for “and 5”, “OD0=μ×(t−t0) (n=4).” for “OD0=μ×(t−t0) (n=3).”, “in triplicate.” for “in triplicate, with two replicates at each condition (n=3).”

COc1c(O)cc2oc3cc4c(c(O)c3c(=O)c2c1CC=C(C)C)C=CC(C)(C)O4 [HCX, 9-hydroxycalabaxanthone]
bacteria eliminated (S. mutans; 0.0002% HCX): 70% | bacteria eliminated (S. mutans; 0.001% HCX): 90% | plaque biofilm bacteria formation (live/dead ratio, CFU/mL) (bacterial plaque biofilm): reduced plaque biofilm bacteria formation | bacteria eliminated (S. epidermidis; 0.001% HCX, 10 h): 100% | bacteria eliminated (S. epidermidis; 0.003% HCX, 24 h): 80% | bacteria eliminated (S. pyogenes): 100%

Source: patent publication US20250303006A1, “BIOCOMPATIBLE ANTISEPTIC COMPOSITION CONTAINING 9-HYDROXYCALABAXANTHONE AND/OR RELATED XANTHONES” (UNIVERSITAT DE LES ILLES BALEARS, priority 2022, published 2025)
